This test concerns the target T1, AcrB (Escherichia coli, UniProt P31224).
T1 construct: full-length, His-tagged (pET24acrBHis), from E. coli C43(DE3) delta-acrAB; homotrimer, DDM-solubilised; crystallised with DARPins
Kind of test: X-ray co-crystal structure. The class given is binding. To be noted: DARPin chaperone.

T1 sequence (P31224 whole entry): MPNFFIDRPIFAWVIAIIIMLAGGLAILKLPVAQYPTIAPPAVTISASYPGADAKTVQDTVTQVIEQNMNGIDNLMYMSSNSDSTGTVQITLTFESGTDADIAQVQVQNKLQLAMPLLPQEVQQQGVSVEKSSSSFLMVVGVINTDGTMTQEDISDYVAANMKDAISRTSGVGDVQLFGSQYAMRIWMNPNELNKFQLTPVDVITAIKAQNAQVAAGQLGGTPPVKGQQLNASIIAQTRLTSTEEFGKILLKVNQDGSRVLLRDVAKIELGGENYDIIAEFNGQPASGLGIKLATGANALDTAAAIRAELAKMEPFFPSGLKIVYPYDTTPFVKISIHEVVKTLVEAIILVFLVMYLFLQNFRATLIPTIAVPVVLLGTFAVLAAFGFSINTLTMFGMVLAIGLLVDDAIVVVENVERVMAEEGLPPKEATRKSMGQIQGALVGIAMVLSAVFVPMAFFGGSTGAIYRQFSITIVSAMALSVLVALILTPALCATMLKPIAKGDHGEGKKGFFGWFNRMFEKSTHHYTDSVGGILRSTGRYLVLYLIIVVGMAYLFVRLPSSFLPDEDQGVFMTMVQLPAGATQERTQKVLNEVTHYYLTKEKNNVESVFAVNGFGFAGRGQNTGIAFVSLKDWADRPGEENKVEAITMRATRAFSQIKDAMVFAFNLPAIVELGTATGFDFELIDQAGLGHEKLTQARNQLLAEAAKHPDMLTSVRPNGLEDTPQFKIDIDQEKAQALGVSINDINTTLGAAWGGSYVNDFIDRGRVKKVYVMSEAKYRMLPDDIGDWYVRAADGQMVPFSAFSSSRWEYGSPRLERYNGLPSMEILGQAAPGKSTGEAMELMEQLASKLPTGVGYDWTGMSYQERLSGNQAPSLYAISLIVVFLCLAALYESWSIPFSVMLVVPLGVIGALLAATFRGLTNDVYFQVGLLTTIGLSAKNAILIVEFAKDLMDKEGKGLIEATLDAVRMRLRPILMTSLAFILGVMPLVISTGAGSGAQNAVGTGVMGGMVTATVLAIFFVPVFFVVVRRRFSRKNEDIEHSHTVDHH

`CO[C@H]1/C=C/O[C@@]2(C)Oc3c(C)c(O)c4c(O)c(c(C=O)c(O)c4c3C2=O)NC(=O)/C(C)=C\C=C\[C@H](C)[C@H](O)[C@@H](C)[C@@H](O)[C@@H](C)[C@H](OC(C)=O)[C@@H]1C` [3-formylrifamycin SV]: for the setting “access pocket of L protomer, crystallised with 3 mM rifampicin”, the X-ray co-crystal structure result is given as “co-crystal AcrB/3-formylrifamycin SV (3-FOR) structure”.

For `CC(=O)O[C@H]1C[C@@]2(C)[C@@H](C[C@@H](O)[C@H]3[C@@]4(C)CC[C@@H](O)[C@@H](C)[C@@H]4CC[C@@]32C)/C1=C(\CCC=C(C)C)C(=O)O` [fusidic acid], the X-ray co-crystal structure entry (T protomer: TMD-BP, TM1/TM2 groove and TM7/TM8 groove, co-crystallised with 1 mM each fusidic acid, erythromycin, linezolid, oxacillin) is on record as “co-structure with FUA bound to a deep concave crevice surrounded by TM2, TM4, TM10-12”.

(Values after paper PMC8242077, “Allosteric drug transport mechanism of multidrug transporter AcrB” (Nature Communications, 2021).)
